Source: PMC5575254, “An allosteric ligand-binding site in the extracellular cap of K2P channels” (Nature Communications, 2017)
Residue numbers refer to the chain shown, from its start.

Tests used:
[1] = system: mice; experiment: Tail suspension test; type: in vivo, Male C57BL/6 mice; conditions: chronic i.p. administration 10 days; 0.5, 1, 5 mg kg-1
Protocol: Male C57BL/6 mice, aged 8 weeks (weighing 18–20 g) were used for acute and chronic drug administration and behavioral tests. The mice were housed four per cage under a 12-h light–dark cycle. Mice were raised under stable conditions with food and water ad libitum. All animal studies and experimental procedures were approved by the Animal Care Committees of the Shanghai Institute of Materia Medica, Chinese Academy of Sciences, and experiments were carried out in accordance with EU Directive 2010/63/EU on the protection of animals used for scientific purposes. […] The mice were removed to a sound-attenuating testing room 3–4 h before testing. The behavioral tests were carried out 30 min and 24 h after acute and chronic drugs administration, respectively.
Mice were secured on the shelf by using adhesive tape placed approximately 1 cm from the tip of the tail. The mice were then suspended by placing the other end of the tape on the edge of shelf at the height of 80 cm above the floor. Six-minute session was performed for each animal. A blinded experiment was conducted to record the amount of time spent immobile during the last 4 min of the testing period; the first 2 min were excluded. Because most mice are very active at the beginning of the test, and the potential effects of the treatment can be minimized during the first 2 min. […]

[2] = target: T1, mutant TREK-1 channels (Homo sapiens, UniProt O95069, Q98A); experiment: Whole-cell voltage clamp of mutant TREK-1 channels; type: cell-based; conditions: Q83A mutant
T1 construct: expressed in transfected cells; host or cells: CHO cells, transient transfection
T1 sequence (O95069 1-411 isoform O95069-2 Q83A): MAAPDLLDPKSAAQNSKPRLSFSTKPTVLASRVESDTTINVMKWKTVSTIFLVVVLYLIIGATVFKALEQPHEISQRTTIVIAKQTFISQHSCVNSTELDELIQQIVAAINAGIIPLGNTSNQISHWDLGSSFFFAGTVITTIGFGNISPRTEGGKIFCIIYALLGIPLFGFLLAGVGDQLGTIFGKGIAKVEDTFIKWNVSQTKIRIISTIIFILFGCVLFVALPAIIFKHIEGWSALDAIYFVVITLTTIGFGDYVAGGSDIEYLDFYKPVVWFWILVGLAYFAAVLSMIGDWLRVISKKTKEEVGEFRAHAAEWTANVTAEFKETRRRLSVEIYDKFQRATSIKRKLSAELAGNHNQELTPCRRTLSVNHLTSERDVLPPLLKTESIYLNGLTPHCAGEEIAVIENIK
Excerpt: (§1) cDNA of the human TREK-1, TREK-2 and TRAAK channels were subcloned into the pEGFPN1 expression vector (Invitrogen), respectively. Mutations were introduced into TREK-1 or TRAAK by PCR using the QuickChange XL sitedirected mutagenesis kit (Agilent Technologies) and were subsequently confirmed by DNA sequencing.
(§2) Chinese hamster ovary (CHO) cells were provided by the Cell Bank of Chinese Academy of Sciences (Shanghai, China). CHO cells were maintained in DMEM/F12 (Gibco) supplemented with 10% fetal bovine serum (Gibco) and 100 μg ml^−1 penicillin-streptomycin (Cellgro) in a humidified incubator at 37 °C (5% CO2). For electrophysiology experiments, cells plated in 35 mm tissue culture dishes (Corning Incorporated) were transiently transfected with the plasmids using PolyJet™ reagent (SignaGen) according to the manufacturer’s instructions. Primers used in this study are listed in Supplementary Table 4.
(§3) All electrophysiological recordings were obtained using patch-clamp recordings in two different configurations: (1) whole cell for macroscopic current dose–response curves; and (2) outside-out and inside-out for macroscopic currents recordings.
(§4) All patch-clamp recordings were conducted 36–96 h after transfection with an Axopatch-200B amplifier (Molecular Devices) at room temperature (23–25 °C). The microelectrodes fashioned from 1.5 mm thin-walled borosilicate glass with filament were pulled from Flaming/Brown type micropipette puller (P-97; SUTTER INSTRUMENT) with the resistances of 3–7 MΩ (whole cell) or 7–15 MΩ (outside-out) when filled with a solution containing (in mM): 140 KCl, 2 MgCl2, 10 EGTA, 1 CaCl2, 10 HEPES (pH 7.3, adjusted with KOH). External solution contained (in mM): 150 NaCl, 5 KCl, 0.5 CaCl2, 1.2 MgCl2, 10 HEPES (pH 7.3, adjusted with NaOH). The current signals were filtered at 1 kHz and digitized at a 10 kHz sampling frequency by using DigiData 1440 A.
(§5) Data of whole-cell voltage clamp experiments were fitted using doseResp function. […]

[3] = target: T2, mutant TREK-1 channels (Homo sapiens, UniProt O95069, Q120A); experiment: Whole-cell voltage clamp of mutant TREK-1 channels; type: cell-based; conditions: Q105A mutant
T2 construct: expressed in transfected cells; host or cells: CHO cells, transient transfection
T2 sequence (O95069 1-411 isoform O95069-2 Q105A): T1 sequence (O95069 1-411 isoform O95069-2 Q83A) with A83Q, Q105A
Excerpt: as §1, §2, §3, §4, §5

[4] = target: T3, mutant TREK-1 channels (Homo sapiens, UniProt O95069, T94A); experiment: Whole-cell voltage clamp of mutant TREK-1 channels; type: cell-based; conditions: T79A mutant
T3 construct: expressed in transfected cells; host or cells: CHO cells, transient transfection
T3 sequence (O95069 1-411 isoform O95069-2 T79A): T1 sequence (O95069 1-411 isoform O95069-2 Q83A) with T79A, A83Q
Excerpt: as §1, §2, §3, §4, §5

IC50 [2]: 2400 ± 600 nM
IC50 [3]: 2200 ± 500 nM
IC50 [4]: 2400 ± 400 nM
SMILES: CS(=O)(=O)N(CC(=O)N1CCc2ccccc2C1)c1ccc(Cl)cc1 [TKDC, N-(4-cholorphenyl)-N-(2-(3,4-dihydrosioquinolin-2(1H)-yl)-2-oxoethyl)methanesulfonamide]
immobility in the tail suspension test [1]: dose-dependent decrease in immobility
